The record followed here is article PMC8541353, “A Novel Phenylpyrrolidine Derivative: Synthesis and Effect on Cognitive Functions in Rats with Experimental Ishemic Stroke” (Molecules, 2021).

This assay concerns newborn rat cortical neurons. The assay is described as follows: Glutamate-induced excitotoxicity in newborn rat cortical neuron culture, MTT cell viability. It counts as cell-based, Wistar rats. An excerpt: To confirm the predicted biological activity, we adopted a glutamate-induced excitotoxicity in the rat cortical neurons model. This work was based on previous findings that glutamate is a well-known excitatory CNS neurotransmitter, which contributes to normal neural transmission, development, differentiation, and plasticity. However, excessive extracellular glutamate levels cause uncontrolled continuous neuron depolarization, which can lead to neuronal death. Excitotoxicity is associated with several neurodegenerative conditions, including Huntington’s disease, Alzheimer’s disease, amyotrophic lateral sclerosis, Parkinson’s disease, and stroke/traumatic brain injury. To see whether compound 1 has neuroprotective effects, we studied the influence of compound 1 in glutamate-treated cortical neurons isolated from newborn Wistar rats (0–1 day).
The primary culture of newborn rat cortical neurons was obtained as previously described. Briefly, cortical neurons were collected from newborn Wistar rats and inoculated onto culture plates (4 × 10^5 cell cm^–2). […]
The cell viability was measured according to the cell ability of tetrazolium dye reduction. […] The formazan absorption at 492 nm was measured using a Zenyth 1100 (Anthos Labtec Instruments, GmbH, Salzburg, Austria) microplate reader.

Structures are written as SMILES.

Take `O=C(CN1CC(c2ccccc2)CC1=O)NCCS(=O)(=O)[O-].[K+]` (centres unmarked) [Compound 1, potassium 2-[2-(2-oxo-4-phenylpyrrolidin-1-yl)acetamido]ethane-1-sulfonate]: the “Increase of cell survival rate” value (50 µM compound 1 after exposure to 50 µM glutamate, MTT, maximum protective effect) stood at 37%. The “Neuroprotective effect at higher dose” value (100 μM compound 1) was “decreases”.
